In patent EP1801112A1, “Bicyclic pyrimidines and bicyclic 3,4-dihydropyrimidines as inhibitors of cellular proliferation” (Warner-Lambert Company LLC, priority 1998, dated 1999):

How the values were obtained:
[1] = target: T1, PDGF-β receptor tyrosine kinase (Mus musculus, UniProt P05622); experiment: PDGF Receptor Tyrosine Kinase Assay; assay type: biochemical; conditions: glutamate-tyrosine co-polymer substrate, 50 µM ATP
T1 construct: amplify a fragment of DNA that codes for the intracellular tyrosine kinase domain; made in house; host or cells: SF9 insect cells (baculovirus); crude cell lysate used
Text: (§1) PDGF and FGF Receptor Tyrosine Kinase Assays
(§2) Full-length cDNAs for the mouse PDGF-β and human FGF-1 (flg) receptor tyrosine kinases were obtained from J. Escobedo and prepared as described in J. Biol. Chem., 1991;262:1482-1487. PCR primers were designed to amplify a fragment of DNA that codes for the intracellular tyrosine kinase domain. The fragment was inserted into a baculovirus vector, cotransfected with AcMNPV DNA, and the recombinant virus isolated. SF9 insect cells were infected with the virus to overexpress the protein, and the cell lysate was used for the assay. Assays were performed in 96-well plates (100 µL/incubation/well), and conditions were optimized to measure the incorporation of ^32P from γ^32P-ATP into a glutamate-tyrosine co-polymer substrate. Briefly, to each well was added 82.5 µL of incubation buffer containing 25 mM Hepes (pH 7.0), 150 mM NaCl, 0.1% Triton X-100, 0.2 mM PMSF, 0.2 mM Na3VO4, 10 mM MnCl2, and 750 µg/mL of Poly (4:1) glutamate-tyrosine followed by […] of inhibitor and 5 µL of enzyme lysate (7.5 µg/µL FGF-TK or 6.0 µg/µL PDGF-TK) to initiate the reaction. Following a 10 minute incubation at 25°C, 10 mL of γ^32P-ATP (0.4 µCi plus 50 µM ATP) was added to each well, and samples were incubated for an additional 10 minutes at 25°C. The reaction was terminated by the addition of 100 µL of 30% trichloroacetic acid (TCA) containing 20 mM sodium pyrophosphate and precipitation of material onto glass fiber mats (Wallac). Filters were washed three times with 15% TCA containing 100 mM sodium pyrophosphate, and the radioactivity retained on the filters counted in a Wallac 1250 Betaplate reader. Nonspecific activity was defined as radioactivity retained on the filters following incubation of samples with buffer alone (no enzyme). Specific enzymatic activity (enzyme plus buffer) was defined as total activity minus nonspecific activity. […]

cdk2/cyclinA = cdk2/cyclinA (Homo sapiens, UniProt P24941); experiment: Cyclin-Dependent Kinase Assay cdk2/cyclinA; assay type: biochemical
Experimental: (§3) Cyclin-Dependent Kinase Assays (cdk2/cyclinE, cdk2/cyclinA, cdc2/cyclinB)
(§4) All components except the ATP were added to the wells, and the plate was placed on a plate mixer for 2 minutes. The reaction was begun by addition of [^32P]ATP, and the plate was incubated at 25°C for 15 minutes. The reaction was terminated by addition of 0.1 mL of 20% TCA. The plate was kept at 4°C for at least 1 hour to allow the substrate to precipitate. The wells were then washed five times with 0.2 mL of 10% TCA and ^32P incorporation determined with a beta plate counter (Wallac Inc., Gaithersburg, MD).

cdc2/cyclinB = cdc2/cyclinB (Homo sapiens, UniProt P06493); experiment: Cyclin-Dependent Kinase Assay cdc2/cyclinB; assay type: biochemical
Experimental: as §3, §4

cdk4/D = cdk4/D (Homo sapiens, UniProt P11802); experiment: Cyclin-Dependent Kinase 4 (cdk4) Assay; assay type: biochemical
Experimental: A typical assay, for instance, measures inhibitory activity against the cyclin D dependent kinase 4 enzyme (cdk4/D). […] The cdk4 assay was carried out as follows.
Cyclin-Dependent Kinase 4 (cdk4) Assay
Enzyme assays for IC50 determinations (Tables 1 and 2) and kinetic evaluation were performed in 96 well filter plates (Millipore MADVN6550). The total volume was 0.1 mL containing a final concentration of 20 mM TRIS (tris[hydroxymethyl]aminomethane), at pH 7.4, 50 mM NaCl, 1 mM dithiothreitol, 10 mM MgCl2, 25 µM ATP containing 0.25 µCi of [^32P]ATP, 20 ng of cdk4, 1 µg of retinoblastoma, and appropriate dilutions of a compound of the present invention. All components except the ATP were added to the wells, and the plate was placed on a plate mixer for 2 minutes. The reaction was started by adding [^32P]ATP and the plate was incubated at 25°C for 15 minutes. The reaction was terminated by addition of 0.1 mL of 20% trichloroacetic acid (TCA). The plate was kept at 4°C for at least 1 hour to allow the substrate to precipitate. The wells were then washed five times with 0.2 mL of 10% TCA and ^32P incorporation was determined with a beta plate counter (Wallac Inc., Gaithersburg, MD).

[2] = target: T2, FGF-1 (flg) receptor tyrosine kinase (Homo sapiens, UniProt P11362); experiment: FGF Receptor Tyrosine Kinase Assay; assay type: biochemical; conditions: glutamate-tyrosine co-polymer substrate, 50 µM ATP
T2 construct: amplify a fragment of DNA that codes for the intracellular tyrosine kinase domain; made in house; host or cells: SF9 insect cells (baculovirus); crude cell lysate used
Experimental: as §1
as §2, with “PCR” for “Full-length cDNAs for the mouse PDGF-β and human FGF-1 (flg) receptor tyrosine kinases were obtained from J. Escobedo and prepared as described in J. Biol. Chem., 1991;262:1482-1487. PCR”, “Following a 10 minute incubation at 25°C, 10 mL of γ^32P-ATP (0.4 µCi plus 50 µM ATP) was added to each well, and samples were incubated for an additional 10 minutes at 25°C.” left out, “Filters were washed three times with 15% TCA containing 100 mM sodium pyrophosphate, and the radioactivity retained on the filters counted in a Wallac 1250 Betaplate reader.” left out

cdk2/cyclinE = cdk2/cyclinE (Homo sapiens, UniProt P24941); experiment: Cyclin-Dependent Kinase Assay cdk2/cyclinE; assay type: biochemical
Experimental: as §3, §4

c-Src = target: T3, c-Src (Homo sapiens, UniProt P12931); experiment: c-Src protein kinase assay; assay type: biochemical; conditions: poly GluTyr substrate, 5 µM ATP
T3 construct: made in house; host or cells: baculovirus infected insect cells
Experimental: The assay was carried out as follows: c-Src kinase was purified from baculovirus infected insect cell lysates using an antipeptide monoclonal antibody directed against the N-terminal amino acids (amino acids 2-17) of c-Src. The antibody, covalently linked to 0.65 µm latex beads, was added to a suspension of insect cell lysis buffer comprised of 150 mM NaCl, 50 mM Tris pH 7.5, 1 mM DTT, 1% NP-40, 2 mM EGTA, 1 mM sodium vanadate, 1 mM PMSF, 1 µg/mL each of leupeptin, pepstatin, and aprotinin. Insect cell lysate containing c-Src protein was incubated with these beads for 3 to 4 hours at 4°C with rotation. At the end of the lysate incubation, the beads were rinsed three times in lysis buffer, resuspended in lysis buffer containing 10% glycerol, and frozen. These latex beads were thawed, rinsed three times in assay buffer (40 mM Tris, pH 7.5, […]) and suspended in the same buffer. In a Millipore 96-well plate with a 0.65 µm polyvinylidine membrane bottom were added the reaction components: 10 µL c-Src beads, 10 µL of 2.5 mg/mL poly GluTyr substrate, 5 µM ATP containing 0.2 µCi labeled ^32P-ATP, 5 µL DMSO containing inhibitors or as a solvent control, and buffer to make the final volume 125 µL. The reaction was started at room temperature by addition of the ATP and quenched 10 minutes later by the addition of 125 µL of 30% TCA, 0.1 M sodium pyrophosphate for 5 minutes on ice. […] The filters were then punched, counted in a liquid scintillation counter, and the data examined for inhibitory activity in comparison to a known inhibitor such as erbstatin. […]

[3] = tested on: human umbilical vein endothelial cells; experiment: Human Umbilical Vein Endothelial Cell (HUVEC) Proliferation Assay; assay type: cell-based; conditions: 96 h, four days incubation, Sulphorhodamine B staining
Experimental: The compounds of Formula I are useful for treating cell proliferative disorders concerning angiogenesis and have been evaluated in a human umbilical vein endothelial cell in vitro assay. The assay described below is used to determine the anti-proliferative effects of the invention compounds on human umbilical vein endothelial cells, and the results are shown in Table 7.
Human Umbilical Vein Endothelial Cell (HUVEC) Proliferation Assay
Ninety-six well tissue culture plates are seeded with 100 µL of cells in all wells of rows A->G with row H remaining empty as a blank. HUVEC (Clonetics, San Diego, CA) are grown in endothelial growth medium (EGM media, Clonetics), containing 2% fetal bovine serum. The cell seed density for HUVEC cells is 20,000 per mL. C6 cells (ATCC Cat. No. CCL-107) are seeded at 6000 per mL in F10 medium (nutrient mixture Hemes) supplemented with 15% horse serum, 2.5% fetal bovine serum, and 6.0 mL 200 mM Glutamine per 600 mL medium. A90 cells (Suny, Buffalo, NY) are also seeded at 6000 per mL, but they are grown in RPMI 1640 (Roswell Park Memorial Institute) plus 10% fetal bovine serum. Unless noted otherwise, tissue culture media and components are from GIBCO. The cells are allowed to incubate at 37°C, 5% CO2, and 100% relative humidity for 16-24 hours.
Invention compounds are prepared by dissolving them in DMSO at a concentration of 5 mM, followed by dilution to 50 µM in EGM media. One hundred microliters of the compounds are applied to duplicate wells in column 1 of the previously prepared cell plates. Column 1 row H receives 100 µL of EGM media. The compounds in column 1 are diluted across the plates using serial twofold dilutions.
The plates are incubated as above for an additional four days before being stained with Sulphorhodamine B. Staining is performed as follows: The media is removed from the plates, and the cells are fixed using 10% trichloroacetic acid for 30 minutes at 4°C. Following fixation, the plates are washed five times with distilled water after which 100 µL of Sulphorhodamine B is added to each well. Sulphorhodamine B is dissolved in 1% acetic acid to a concentration of .075%. Following staining, excess stain is removed from the wells, and the plates are washed four times with 1% acetic acid. The plates are allowed to air dry before the bound dye is solubilized in 100 µL of 10 mM unbuffered TRIS base. Absorbance is measured on a 96 well plate reader at […] using a reference filter wavelength of 630 nm. […] Sulphorhodamine B and TRIS are from Sigma Chemical Company. Acetic acid and trichloroacetic acid are from Mallinckrodt AR.

Chain of cdk4/D (P11802 whole entry): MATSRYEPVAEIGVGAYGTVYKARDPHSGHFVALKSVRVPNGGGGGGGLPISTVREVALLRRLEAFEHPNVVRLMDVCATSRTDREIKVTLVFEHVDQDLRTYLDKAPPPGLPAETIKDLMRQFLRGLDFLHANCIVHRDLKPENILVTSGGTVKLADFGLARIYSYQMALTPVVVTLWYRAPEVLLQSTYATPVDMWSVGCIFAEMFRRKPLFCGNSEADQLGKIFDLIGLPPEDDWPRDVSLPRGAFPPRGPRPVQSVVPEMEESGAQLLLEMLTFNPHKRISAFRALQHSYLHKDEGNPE
Chain of cdk4/D (P24385 whole entry, further chain): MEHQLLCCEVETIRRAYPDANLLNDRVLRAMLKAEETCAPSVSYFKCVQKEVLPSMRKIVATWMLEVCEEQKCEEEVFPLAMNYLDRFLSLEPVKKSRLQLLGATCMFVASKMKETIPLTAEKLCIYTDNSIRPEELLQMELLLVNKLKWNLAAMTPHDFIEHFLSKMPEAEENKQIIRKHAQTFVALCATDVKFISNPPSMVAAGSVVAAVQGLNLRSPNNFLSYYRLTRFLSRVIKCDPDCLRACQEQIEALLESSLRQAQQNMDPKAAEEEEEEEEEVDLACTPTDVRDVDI
Chain of cdc2/cyclinB (P06493 whole entry): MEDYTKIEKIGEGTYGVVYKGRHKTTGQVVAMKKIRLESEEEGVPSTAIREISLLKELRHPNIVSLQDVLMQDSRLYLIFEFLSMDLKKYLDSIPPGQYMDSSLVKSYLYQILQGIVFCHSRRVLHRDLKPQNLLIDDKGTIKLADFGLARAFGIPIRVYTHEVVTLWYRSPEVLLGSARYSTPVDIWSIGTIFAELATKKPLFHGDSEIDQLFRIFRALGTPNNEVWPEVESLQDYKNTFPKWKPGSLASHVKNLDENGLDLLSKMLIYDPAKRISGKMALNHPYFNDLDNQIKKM
Chain of cdc2/cyclinB (P14635 whole entry, further chain): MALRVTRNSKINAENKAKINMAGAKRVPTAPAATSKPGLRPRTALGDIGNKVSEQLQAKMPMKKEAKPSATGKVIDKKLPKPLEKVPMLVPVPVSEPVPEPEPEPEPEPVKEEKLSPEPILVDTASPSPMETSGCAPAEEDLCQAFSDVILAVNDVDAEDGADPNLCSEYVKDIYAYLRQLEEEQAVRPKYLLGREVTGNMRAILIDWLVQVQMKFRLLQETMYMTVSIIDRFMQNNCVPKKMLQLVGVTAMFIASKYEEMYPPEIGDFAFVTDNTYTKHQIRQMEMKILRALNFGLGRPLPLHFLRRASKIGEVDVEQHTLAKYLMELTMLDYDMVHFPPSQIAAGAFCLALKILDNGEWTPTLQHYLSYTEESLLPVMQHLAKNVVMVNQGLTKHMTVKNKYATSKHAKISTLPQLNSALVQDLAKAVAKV
T3 sequence (P12931 whole entry): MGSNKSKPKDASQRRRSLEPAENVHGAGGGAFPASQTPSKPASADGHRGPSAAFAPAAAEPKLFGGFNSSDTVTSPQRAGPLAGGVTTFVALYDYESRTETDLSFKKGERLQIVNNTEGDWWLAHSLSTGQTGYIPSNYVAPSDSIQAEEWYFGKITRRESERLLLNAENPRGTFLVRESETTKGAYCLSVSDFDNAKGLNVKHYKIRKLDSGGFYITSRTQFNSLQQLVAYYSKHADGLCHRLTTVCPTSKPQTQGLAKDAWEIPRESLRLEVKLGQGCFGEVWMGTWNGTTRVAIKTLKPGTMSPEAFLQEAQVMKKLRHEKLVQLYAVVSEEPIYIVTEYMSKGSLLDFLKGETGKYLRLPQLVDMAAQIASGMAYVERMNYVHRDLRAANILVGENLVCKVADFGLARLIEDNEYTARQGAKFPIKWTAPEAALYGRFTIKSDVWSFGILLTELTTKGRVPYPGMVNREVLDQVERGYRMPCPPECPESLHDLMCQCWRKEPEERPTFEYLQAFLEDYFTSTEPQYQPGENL
T1 sequence (P05622 599-961 limits assumed): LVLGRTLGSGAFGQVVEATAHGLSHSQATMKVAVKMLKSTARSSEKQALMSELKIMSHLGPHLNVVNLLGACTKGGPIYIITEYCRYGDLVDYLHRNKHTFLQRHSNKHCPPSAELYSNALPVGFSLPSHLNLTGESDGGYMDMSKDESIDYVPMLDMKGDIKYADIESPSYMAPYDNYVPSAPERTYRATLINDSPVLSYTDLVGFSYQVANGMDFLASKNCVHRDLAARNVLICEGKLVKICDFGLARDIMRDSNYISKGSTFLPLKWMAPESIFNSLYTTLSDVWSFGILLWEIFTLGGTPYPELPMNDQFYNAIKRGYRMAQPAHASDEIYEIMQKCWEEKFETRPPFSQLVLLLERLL
T2 sequence (P11362 478-767 limits assumed): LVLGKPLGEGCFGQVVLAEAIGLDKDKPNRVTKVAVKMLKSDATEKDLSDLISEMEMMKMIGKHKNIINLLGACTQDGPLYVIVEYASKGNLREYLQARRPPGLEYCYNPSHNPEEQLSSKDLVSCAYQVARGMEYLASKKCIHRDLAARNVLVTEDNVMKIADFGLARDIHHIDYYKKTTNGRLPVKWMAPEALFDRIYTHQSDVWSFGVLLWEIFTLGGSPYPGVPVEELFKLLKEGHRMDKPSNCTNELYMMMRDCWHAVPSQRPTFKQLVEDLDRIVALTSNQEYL

SMILES	IC50 [1]	IC50 (cdk2/cyclinA)	IC50 (cdc2/cyclinB)	IC50 (cdk4/D)	IC50 [2]	IC50 (cdk2/cyclinE)	IC50 (c-Src)	IC50 [3]
O=c1ncc2cnc(Nc3ccc(-n4cccn4)cc3)nc2n1C1CCCC1 [Example 36, 1-Cyclopentyl-7-[4-(pyrazol-1-yl)phenylamino]pyrimido[4,5-d]pyrimidin-2(1H)-one]	> 50 µM	1330 nM	16100 nM	435 nM	> 50 µM	2440 nM		
C=CCn1c(=O)c2cnc(Nc3ccc(N4CCN(C)CC4)cc3)nc2n(C(C)C)c1=O [Example 70, 3-Allyl-1-isopropyl-7-[4-(4-methylpiperazin-1-yl)phenylamino]-1H-pyrimido[4,5-d]pyrimidine-2,4-dione]	> 50 µM	> 40000 nM	> 40000 nM	3450 nM	> 50 µM			
O=C1NCc2cnc(Nc3ccc(N4CCCC(O)C4)cc3)nc2N1C1CCCC1 (stereo not drawn) [Example 16, 1-Cyclopentyl-7-[4-(3-hydroxypiperidin-1-yl)phenylamino]-3,4-dihydropyrimido[4,5-d]pyrimidin-2(1H)-one]	0.83 µM	640 nM	14900 nM	630 nM		1500 nM	4120 nM	
CCN(CC)CCOc1ccc(Nc2ncc3c(n2)N(CC)C(=O)N(c2cc(OC)cc(OC)c2)C3)cc1 [Example 53a, 7-[4-(2-Diethylamino-ethoxy)-phenylamino]-3-(3,5-dimethoxy-phenyl)-1-ethyl-3,4-dihydro-pyrimido[4,5-d]pyrimidin-2(1H)-one]	< 0.5 µM				0.02 µM			
CCN(CC)CCCCNc1ncc2c(n1)N(CC)C(=O)N(c1cc(OC)cc(OC)c1Cl)C2 [Example 65, 3-(2-Chloro-3,5-dimethoxy-phenyl)-7-(4-diethylamino-butylamino)-1-ethyl-3,4-dihydro-pyrimido[4,5-d]pyrimidin-2(1H)-one]								36 nM
CC1CN(c2ccc(Nc3ncc4c(n3)N(C3CCCC3)C(=O)NC4)cc2)CC(C)N1 (stereo not drawn) [Example 18, 1-Cyclopentyl-7-[4-(3,5-dimethylpiperazin-1-yl)phenylamino]-3,4-dihydropyrimido[4,5-d]pyrimidin-2(1H)-one]	0.21 µM			350 nM		2000 nM	400 nM	
CCN(CC)CCCCNc1ncc2c(n1)NC(=O)N(c1cc(OC)cc(OC)c1)C2 [Example 52, 7-(4-Diethylamino-butylamino)-3-(3,5-dimethoxy-phenyl)-3,4-dihydropyrimido[4,5-d]pyrimidin-2(1H)-one]								6650 nM
COc1cc(OC)cc(N2Cc3cnc(NCCNCc4ccncc4)nc3NC2=O)c1 [Example 54, 3-(3,5-Dimethoxy-phenyl)-7-{2-[(pyridin-4-ylmethyl)-amino]-ethylamino}-3,4-dihydro-pyrimido[4,5-d]pyrimidin-2(1H)-one]								> 25000 nM
O=c1ncc2cnc(Nc3ccc(N4CCC(CCN5CCOCC5)CC4)cc3)nc2n1C1CCCC1 [Example 39]	3.76 µM	1440 nM	24600 nM	300 nM		1850 nM	3230 nM	
COc1cc(OC)cc(N2Cc3cnc(NCCCCN4CCN(C)CC4)nc3NC2=O)c1 [Example 54b, 3-(3,5-Dimethoxy-phenyl)-7-[4-(4-methyl-piperazin-1-yl)-butylamino]-3,4-dihydro-pyrimido[4,5-d]pyrimidin-2(1H)-one]								4960 nM
